Laboratory results reported in patent US20090312280A1.
pIC50: −log10 of the molar value.

Experiments:
EphB4 = EphB4 (Homo sapiens, UniProt P54760); assay: biochemical kinase screening assay
PDK1 = PDK1 (Homo sapiens, UniProt O15530); assay: biochemical kinase screening assay
Lck = Lck (Homo sapiens, UniProt P06239); assay: biochemical
Ret = Ret (Homo sapiens, UniProt P07949); assay: biochemical kinase screening assay
Chain of Ret (P07949 29-1114): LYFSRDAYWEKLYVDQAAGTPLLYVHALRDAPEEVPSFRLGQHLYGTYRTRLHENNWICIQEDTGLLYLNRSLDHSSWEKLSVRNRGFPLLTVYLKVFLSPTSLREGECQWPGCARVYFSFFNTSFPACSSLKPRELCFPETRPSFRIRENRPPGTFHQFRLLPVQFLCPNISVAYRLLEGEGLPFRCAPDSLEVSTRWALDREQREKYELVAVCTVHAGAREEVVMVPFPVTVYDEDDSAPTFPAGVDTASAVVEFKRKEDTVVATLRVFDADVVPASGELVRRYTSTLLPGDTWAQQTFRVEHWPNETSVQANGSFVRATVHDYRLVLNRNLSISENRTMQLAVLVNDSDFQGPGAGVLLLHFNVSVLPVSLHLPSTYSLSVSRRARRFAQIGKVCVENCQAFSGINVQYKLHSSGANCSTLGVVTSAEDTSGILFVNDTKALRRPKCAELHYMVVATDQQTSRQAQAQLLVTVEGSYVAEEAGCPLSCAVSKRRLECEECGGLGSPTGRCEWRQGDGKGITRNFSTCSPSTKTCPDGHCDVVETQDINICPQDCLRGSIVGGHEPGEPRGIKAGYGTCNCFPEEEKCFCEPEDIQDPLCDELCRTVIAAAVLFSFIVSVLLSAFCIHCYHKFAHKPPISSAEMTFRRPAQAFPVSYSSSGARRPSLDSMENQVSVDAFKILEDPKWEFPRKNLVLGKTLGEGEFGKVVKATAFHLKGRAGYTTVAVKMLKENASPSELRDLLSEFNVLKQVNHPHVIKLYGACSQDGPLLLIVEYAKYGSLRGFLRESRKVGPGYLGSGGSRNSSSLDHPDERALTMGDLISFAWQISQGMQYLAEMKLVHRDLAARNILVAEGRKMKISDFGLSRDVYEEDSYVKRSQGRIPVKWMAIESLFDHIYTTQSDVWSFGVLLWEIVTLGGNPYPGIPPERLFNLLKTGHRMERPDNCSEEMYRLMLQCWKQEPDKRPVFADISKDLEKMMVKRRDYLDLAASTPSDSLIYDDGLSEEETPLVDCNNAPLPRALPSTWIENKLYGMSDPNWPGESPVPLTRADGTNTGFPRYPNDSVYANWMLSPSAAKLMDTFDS

Chain of EphB4 (P54760 16-987): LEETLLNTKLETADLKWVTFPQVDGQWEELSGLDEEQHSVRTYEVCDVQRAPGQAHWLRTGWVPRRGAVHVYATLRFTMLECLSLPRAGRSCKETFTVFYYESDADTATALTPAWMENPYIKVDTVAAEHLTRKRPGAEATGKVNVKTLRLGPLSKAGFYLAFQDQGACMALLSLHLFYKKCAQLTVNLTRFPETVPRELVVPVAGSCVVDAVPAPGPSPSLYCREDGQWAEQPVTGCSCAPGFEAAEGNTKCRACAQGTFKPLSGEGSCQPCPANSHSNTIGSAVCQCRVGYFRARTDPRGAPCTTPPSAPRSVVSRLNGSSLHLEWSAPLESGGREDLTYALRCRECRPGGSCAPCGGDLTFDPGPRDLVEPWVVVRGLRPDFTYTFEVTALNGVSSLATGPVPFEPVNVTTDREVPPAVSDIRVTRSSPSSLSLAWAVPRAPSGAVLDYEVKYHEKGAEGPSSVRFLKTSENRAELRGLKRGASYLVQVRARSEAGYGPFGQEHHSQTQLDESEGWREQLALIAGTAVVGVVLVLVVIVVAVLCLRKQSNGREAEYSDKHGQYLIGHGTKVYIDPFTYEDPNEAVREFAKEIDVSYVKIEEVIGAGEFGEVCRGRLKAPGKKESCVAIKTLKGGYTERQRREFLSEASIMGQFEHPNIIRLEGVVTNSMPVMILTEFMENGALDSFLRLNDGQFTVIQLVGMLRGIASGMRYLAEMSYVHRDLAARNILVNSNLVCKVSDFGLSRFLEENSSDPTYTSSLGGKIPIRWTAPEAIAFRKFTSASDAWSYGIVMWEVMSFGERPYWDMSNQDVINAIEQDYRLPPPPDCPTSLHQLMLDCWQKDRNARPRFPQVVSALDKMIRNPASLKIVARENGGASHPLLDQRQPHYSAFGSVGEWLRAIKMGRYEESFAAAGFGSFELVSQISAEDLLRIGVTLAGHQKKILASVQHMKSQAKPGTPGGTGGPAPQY
Chain of PDK1 (O15530 whole entry): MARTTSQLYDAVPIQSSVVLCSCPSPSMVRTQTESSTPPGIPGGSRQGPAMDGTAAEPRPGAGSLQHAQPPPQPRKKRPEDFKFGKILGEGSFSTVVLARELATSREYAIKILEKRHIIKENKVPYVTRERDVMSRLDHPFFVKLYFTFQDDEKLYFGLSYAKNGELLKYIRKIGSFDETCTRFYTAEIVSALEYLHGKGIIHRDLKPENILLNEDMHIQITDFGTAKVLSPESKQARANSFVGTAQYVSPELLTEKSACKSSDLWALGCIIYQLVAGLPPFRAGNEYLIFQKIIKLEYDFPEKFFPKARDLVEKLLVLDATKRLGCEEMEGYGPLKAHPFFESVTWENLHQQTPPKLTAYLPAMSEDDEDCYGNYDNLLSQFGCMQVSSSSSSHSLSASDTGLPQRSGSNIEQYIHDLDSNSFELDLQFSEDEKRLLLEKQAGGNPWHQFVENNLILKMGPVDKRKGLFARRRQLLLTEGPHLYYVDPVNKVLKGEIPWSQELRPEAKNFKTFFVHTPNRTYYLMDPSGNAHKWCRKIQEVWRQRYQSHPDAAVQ
Chain of Lck (P06239 whole entry): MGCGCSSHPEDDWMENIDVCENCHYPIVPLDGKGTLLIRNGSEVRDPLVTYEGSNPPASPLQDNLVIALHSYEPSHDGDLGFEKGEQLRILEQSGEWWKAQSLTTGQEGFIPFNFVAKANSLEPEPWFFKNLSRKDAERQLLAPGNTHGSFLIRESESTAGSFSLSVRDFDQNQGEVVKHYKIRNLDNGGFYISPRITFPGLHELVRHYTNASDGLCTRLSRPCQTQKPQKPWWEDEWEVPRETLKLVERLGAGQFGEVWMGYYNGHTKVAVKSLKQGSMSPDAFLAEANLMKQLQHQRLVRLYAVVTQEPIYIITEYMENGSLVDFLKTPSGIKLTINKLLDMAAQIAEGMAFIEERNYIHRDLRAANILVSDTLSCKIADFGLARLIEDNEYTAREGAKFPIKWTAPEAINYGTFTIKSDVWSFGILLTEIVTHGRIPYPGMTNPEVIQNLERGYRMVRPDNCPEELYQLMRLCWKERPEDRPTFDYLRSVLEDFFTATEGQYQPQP

SMILES: Cn1cc(-c2[nH]c3cc(NC(=O)[C@H](N)C4CCCCC4)cc4c3c2C=NNC4=O)cn1 [Compound 1]
- pIC50 (EphB4): < 5.00
- pIC50 (PDK1): 6.36
- pIC50 (Lck): 6.40
- pIC50 (Ret): 7.41
